Measurements from ChEMBL document CHEMBL6182943, “Identification of 4'-Thiouridine as an Orally Available Antiviral Agent Targeting Both RdRp and NiRAN Functions of SARS-CoV-2 Nsp12” (J Med Chem, 2025).

Legend:
[1] = Cytotoxicity against human Huh-7 cells assessed as reduction in cell viability by MTT-based cell viability assay; type: toxicity
[2] = Cytotoxicity against African green monkey Vero cells assessed as reduction in cell viability incubated for 48 hrs by MTT assay; type: toxicity, cell-based; details: chlorocebus sabaeus
Human coronavirus NL63 = test: Antiviral activity against HCoV-NL63 infected in LLC-MK2 cells assessed as inhibition of virus-induced cytopathic effect measured 2 to 7 days post infection by MTT-based cell viability assay; type: functional, organism-based
[3] = test system: Middle East respiratory syndrome-related coronavirus; test: Antiviral activity against MERS-CoV KOR/KNIH/002_05_2015 infected in human Huh-7 cells assessed as inhibition of virus-induced cytopathic effect measured 2 to 7 days post infection by MTT-based cell viability assay; type: functional, organism-based; details: KOR/KNIH/002_05_2015, Huh-7
[4] = Cytotoxicity against human Calu-3 cells assessed as reduction in cell viability incubated for 48 hrs by MTT assay; type: toxicity, cell-based
[5] = Selectivity index, ratio of CC50 for cytotoxicity against human Calu-3 cells to EC50 for antiviral activity against SARS-CoV-2 Gamma (hCoV-19/Korea95637/KDCA/2021) infected in human Calu-3 cells assessed as reduction in number of spike-protein expressing cells; type: toxicity, cell-based; details: read-out: Ratio CC50/EC50
[6] = Cytotoxicity against rhesus monkey LLC-MK2 cells assessed as reduction in cell viability by MTT-based cell viability assay; type: toxicity, Macaca mulatta
SARS-CoV-2 [7] = test: (§1) Antiviral activity against SARS-CoV-2 infected in african green monkey Vero cells assessed as reduction in number of spike-protein expressing cells pre-infected for 30 mins followed by compound addition and measured 48 hrs post-infection by DAPI staining based immunofluorescence analysis; type: functional, organism-based; details: Severe acute respiratory syndrome coronavirus 2, Vero
[8] = Selectivity index, ratio of CC50 for cytotoxicity against human Calu-3 cells to EC50 for antiviral activity against SARS-CoV-2 Delta (hCoV-19/Korea/KDCA119861/2021) infected in human Calu-3 cells assessed as reduction in number of spike-protein expressing cells; type: toxicity, cell-based; details: read-out: Ratio CC50/EC50
[9] = Selectivity index, ratio of CC50 for cytotoxicity against human Calu-3 cells to EC50 for antiviral activity against SARS-CoV-2 Omicron (hCoV-19/Korea/KDCA447321/2021) infected in human Calu-3 cells assessed as reduction in number of spike-protein expressing cells; type: toxicity, cell-based; details: read-out: Ratio CC50/EC50
SARS-CoV-2 [10] = test: as §1, with “SARS-CoV-2 Wuhan-like (hCoV-19/Korea/KCDC06/2020)” for “SARS-CoV-2”, “human Calu-3” for “african green monkey Vero”, “analysis relative to control” for “analysis”; type: functional, organism-based; details: Severe acute respiratory syndrome coronavirus 2, Wuhan-like (hCoV-19/Korea/KCDC06/2020)
SARS-CoV-2 [11] = test: as §1, with “SARS-CoV-2 Gamma (hCoV-19/Korea95637/KDCA/2021)” for “SARS-CoV-2”, “human Calu-3” for “african green monkey Vero”, “analysis relative to control” for “analysis”; type: functional, organism-based; details: Severe acute respiratory syndrome coronavirus 2, Gamma (hCoV-19/Korea95637/KDCA/2021)
SARS-CoV-2 [12] = test: as §1, with “SARS-CoV-2 Omicron (hCoV-19/Korea/KDCA447321/2021)” for “SARS-CoV-2”, “human Calu-3” for “african green monkey Vero”, “analysis relative to control” for “analysis”; type: functional, organism-based; details: Severe acute respiratory syndrome coronavirus 2, Omicron (hCoV-19/Korea/KDCA447321/2021)
[13] = Selectivity index, ratio of CC50 for cytotoxicity against human Huh-7 cells to EC50 for antiviral activity against MERS-CoV KOR/KNIH/002_05_2015 infected in human Huh-7 cells assessed as inhibition of virus-induced cytopathic effect; type: toxicity, cell-based; details: read-out: Ratio CC50/EC50
[14] = Selectivity index, ratio of CC50 for cytotoxicity against African green monkey Vero cells to EC50 for antiviral activity against SARS-CoV-2 infected in african green monkey Vero cells assessed as reduction in number of spike-protein expressing cells; type: toxicity, cell-based; details: read-out: Ratio CC50/EC50
[15] = Selectivity index, ratio of CC50 for cytotoxicity against human Calu-3 cells to EC50 for antiviral activity against SARS-CoV-2 Wuhan-like (hCoV-19/Korea/KCDC06/2020) infected in human Calu-3 cells assessed as reduction in number of spike-protein expressing cells; type: toxicity, cell-based; details: read-out: Ratio CC50/EC50
[16] = Selectivity index, ratio of CC50 for cytotoxicity against rhesus monkey LLC-MK2 cells to EC50 for antiviral activity against HCoV-NL63 infected in rhesus monkey LLC-MK2 cells assessed as inhibition of virus-induced cytopathic effect; type: toxicity, cell-based; details: read-out: Ratio CC50/EC50
SARS-CoV-2 [17] = test: as §1, with “SARS-CoV-2 Delta (hCoV-19/Korea/KDCA119861/2021)” for “SARS-CoV-2”, “human Calu-3” for “african green monkey Vero”, “analysis relative to control” for “analysis”; type: functional, organism-based; details: Severe acute respiratory syndrome coronavirus 2, Delta (hCoV-19/Korea/KDCA119861/2021)
[18] = Cytotoxicity against HEK293T cells assessed as reduction in cell viability measured after 48 hrs by MTT assay; type: toxicity, cell-based, HEK-293T; details: human
[19] = Selectivity index, ratio of CC50 for cytotoxicity against HEK293T cells to EC50 for antiviral activity against Zaire Ebola virus infected in HEK293T cells transfected with viral replication protein and Renilla luciferase; type: toxicity, cell-based; details: human, read-out: Ratio CC50/EC50
Zaire ebolavirus = test: Antiviral activity against Zaire Ebola virus infected in HEK293T cells transfected with viral replication protein and Renilla luciferase pre-infected for 4 hrs followed by compound addition and measured after 48 hrs by Dual-luciferase reporter assay; type: functional, organism-based; details: HEK-293T
Influenza A virus (H1N1) = test: Antiviral activity against Influenza A virus A/Puerto Rico/8/34 (H1N1) infected in MDCK cells assessed as reduction in virus-induced cytopathic effect incubated for 3 days in presence of TPCK-treated trypsin by MTT assay; type: functional, organism-based; details: 72 h
Influenza A virus = test: Antiviral activity against Influenza A virus A/Hong Kong/8/68 (H3N2) infected in MDCK cells assessed as reduction in virus-induced cytopathic effect incubated for 3 days in presence of TPCK-treated trypsin by MTT assay; type: functional, organism-based; details: 72 h
[20] = Selectivity index, ratio of CC50 for cytotoxicity against MDCK cells to EC50 for antiviral activity against Influenza A virus A/Hong Kong/8/68 (H3N2) infected in MDCK cells assessed as reduction in virus-induced cytopathic effect; type: toxicity, cell-based; details: dog, read-out: Ratio CC50/EC50
[21] = Selectivity index, ratio of CC50 for cytotoxicity against golden hamster BHK-21 cells to EC50 for antiviral activity against Dengue virus 2 infected in BHK-21 cells transfected with Renilla luciferase tagged viral subgenomic replicon; type: toxicity, cell-based; details: read-out: Ratio CC50/EC50
dengue virus type 2 = test: Antiviral activity against Dengue virus 2 infected in BHK-21 cells transfected with Renilla luciferase tagged viral subgenomic replicon incubated for 48 hrs by luciferase based assay; type: functional, organism-based; details: BHK-21, 48 h
[22] = Cytotoxicity against MDCK cells assessed as reduction in cell viability incubated for 3 days by MTT assay; type: toxicity, cell-based, Canis lupus familiaris; details: dog, time 3 day
[23] = Selectivity index, ratio of CC50 for cytotoxicity against MDCK cells to EC50 for antiviral activity against Influenza B virus B/Lee/40 infected in MDCK cells assessed as reduction in virus-induced cytopathic effect; type: toxicity, cell-based; details: dog, read-out: Ratio CC50/EC50
Influenza B virus = test: Antiviral activity against Influenza B virus B/Lee/40 infected in MDCK cells assessed as reduction in virus-induced cytopathic effect incubated for 3 days in presence of TPCK-treated trypsin by MTT assay; type: functional, organism-based; details: B/Lee/40, MDCK, 72 h
[24] = Selectivity index, ratio of CC50 for cytotoxicity against MDCK cells to EC50 for antiviral activity against Influenza A virus A/Puerto Rico/8/34 (H1N1) infected in MDCK cells assessed as reduction in virus-induced cytopathic effect; type: toxicity, cell-based; details: dog, read-out: Ratio CC50/EC50
[25] = Cytotoxicity against golden hamster BHK-21 cells assessed as reduction in cell viability by MTT assay; type: toxicity, cell-based, Mesocricetus auratus

## CCC(CC)COC(=O)[C@H](C)N[P@](=O)(OC[C@H]1O[C@@](C#N)(c2ccc3c(N)ncnn23)[C@H](O)[C@@H]1O)Oc1ccccc1
[1]
  CC50: 19.6 µM
[2]
  CC50 at 48 h: > 100 µM
Human coronavirus NL63
  EC50: 0.14 µM
[3]
  EC50: < 0.042 µM
[4]
  CC50 at 48 h: > 100 µM
[5]
  selectivity ratio: > 73.1
[6]
  CC50: > 100 µM
SARS-CoV-2 [7]
  EC50: 4.83 µM
[8]
  selectivity ratio: > 41.6
[9]
  selectivity ratio: > 24.7
SARS-CoV-2 [10]
  EC50: 0.57 µM
SARS-CoV-2 [11]
  EC50: 1.37 µM
SARS-CoV-2 [12]
  EC50: 0.984 µM
[13]
  selectivity ratio: > 348
[14]
  selectivity ratio: > 20.7
[15]
  selectivity ratio: > 174
[16]
  selectivity ratio: > 702
SARS-CoV-2 [17]
  EC50: 2.4 µM
[18]
  CC50 at 48 h: 2.62 µM
[19]
  selectivity ratio: 14.2
Zaire ebolavirus
  EC50: 0.18 µM

## NC(=O)c1ncn([C@@H]2O[C@H](CO)[C@@H](O)[C@H]2O)n1 [RIBAVIRIN]
Influenza A virus (H1N1)
  EC50: 17.3 µM
Influenza A virus
  EC50: 17.2 µM
[20]
  selectivity ratio: > 5.82
[21]
  selectivity ratio: > 28.8
Dengue virus type 2
  EC50: 3.47 µM
[22]
  CC50 at 72 h: > 100 µM
[23]
  selectivity ratio: > 6.39
Influenza B virus
  EC50: 15.7 µM
[24]
  selectivity ratio: > 5.77
[25]
  CC50: > 100 µM
